Measured values published in ChEMBL document CHEMBL1201862, “PubChem BioAssay data set” (2004).
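Exposure lasted 48 hours, with cells grown in 96-well plates and compounds tested at five concentrations. At the GI50, growth is halved.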 The source made the active and inactive calls. No stated cut-off is given here; in the data, active = GI50 up to about 1.1 µM and inactive = higher.

Experiments:
Assay in all cases: inhibition of tumour cell growth, NCI panel, 48 h
ACHN = system: ACHN
COLO 205 = system: COLO 205
HCC 2998 = system: HCC 2998
HL-60 = system: HL-60
HOP-62 = system: HOP-62
HT-29 = system: HT-29
LOX IMVI = system: LOX IMVI
MDA-MB-231 = system: MDA-MB-231
NCI-H23 = system: NCI-H23
NCI-H460 = system: NCI-H460
OVCAR-5 = system: OVCAR-5
RPMI-8226 = system: RPMI-8226
SF-295 = system: SF-295
SF-539 = system: SF-539
SK-MEL-5 = system: SK-MEL-5
SNB-19 = system: SNB-19
SW-620 = system: SW-620
TK-10 = system: TK-10
U-251 = system: U-251
UACC-257 = system: UACC-257

Row | SMILES | GI50 (ACHN) | GI50 (COLO 205) | GI50 (HCC 2998) | GI50 (HL-60) | GI50 (HOP-62) | GI50 (HT-29) | GI50 (LOX IMVI) | GI50 (MDA-MB-231) | GI50 (NCI-H23) | GI50 (NCI-H460) | GI50 (OVCAR-5) | GI50 (RPMI-8226) | GI50 (SF-295) | GI50 (SF-539) | GI50 (SK-MEL-5) | GI50 (SNB-19) | GI50 (SW-620) | GI50 (TK-10) | GI50 (U-251) | GI50 (UACC-257)
1 | CCN(CC)c1ccc2cc(-c3nnc(-c4ccccc4)o3)c(=O)oc2c1 | 18.2 µM (inactive) | 20.3 µM (inactive) | 2.2 µM (inactive) | 16.6 µM (inactive) | 17.6 µM (inactive) | 25.4 µM (inactive) | 29.6 µM (inactive) | 22.9 µM (inactive) | 56.9 µM (inactive) | 4.93 µM (inactive) | 56.2 µM (inactive) | 12.1 µM (inactive) | 17.3 µM (inactive) | 13 µM (inactive) | 29.5 µM (inactive) | 25.9 µM (inactive) | 30.5 µM (inactive) | 25.4 µM (inactive) | 11.3 µM (inactive) | 32.5 µM (inactive)
2 | COc1ccc(Nc2nc3ccccc3nc2C(=O)O)cc1OC | 44.8 µM (inactive) | > 100 µM (inactive) | 71.6 µM (inactive) | 88.1 µM (inactive) | 34.4 µM (inactive) | > 100 µM (inactive) | 99.8 µM (inactive) | 56.2 µM (inactive) | 80.4 µM (inactive) | 45.8 µM (inactive) | > 100 µM (inactive) | 65.8 µM (inactive) | 33.2 µM (inactive) | > 100 µM (inactive) | 28.5 µM (inactive) | 73.1 µM (inactive) | > 100 µM (inactive) | 82.8 µM (inactive) | > 100 µM (inactive) | 98.2 µM (inactive)
3 | CC(=O)c1c2c(cc3c1CC1(Cc4cc5c(cc4C1=O)CCC5)C3)CCC2 (stereo not given) | > 68.7 µM (inactive) | 64.6 µM (inactive) | 72.9 µM (inactive) | 7.21 µM (inactive) | > 100 µM (inactive) | 54.2 µM (inactive) | 38.3 µM (inactive) | 40.2 µM (inactive) | 30.9 µM (inactive) | 42.6 µM (inactive) | > 100 µM (inactive) | 10.5 µM (inactive) | 42.5 µM (inactive) | > 100 µM (inactive) | 12.1 µM (inactive) | > 100 µM (inactive) | 85.5 µM (inactive) | > 66.1 µM (inactive) | > 77.1 µM (inactive) | 13.2 µM (inactive)
4 | C=CCN1C(N)=C(C#N)C(C#N)(C#N)C1CCC (stereo not given) | > 100 µM (inactive) | > 100 µM (inactive) | > 100 µM (inactive) | > 100 µM (inactive) | > 100 µM (inactive) | > 100 µM (inactive) | > 100 µM (inactive) | > 100 µM (inactive) | > 100 µM (inactive) | > 100 µM (inactive) | > 100 µM (inactive) | > 100 µM (inactive) | > 100 µM (inactive) | > 100 µM (inactive) | 81.7 µM (inactive) | > 100 µM (inactive) | > 100 µM (inactive) | > 100 µM (inactive) | > 100 µM (inactive) | > 100 µM (inactive)
5 | c1ccc(-c2c(-c3[nH]c4ccccc4c3-c3ccccc3)[nH]c3ccccc23)cc1 | 3.33 µM (inactive) | 1.91 µM (inactive) | 1.82 µM (inactive) | 3.06 µM (inactive) | 2.55 µM (inactive) | 3.45 µM (inactive) | 1.92 µM (inactive) | 3.4 µM (inactive) | 2.63 µM (inactive) | 2.95 µM (inactive) | 11.1 µM (inactive) | 2.94 µM (inactive) | 4.18 µM (inactive) | 7.96 µM (inactive) | 4.16 µM (inactive) | 6.5 µM (inactive) | 3.34 µM (inactive) | 10.6 µM (inactive) | 4.52 µM (inactive) | 12.3 µM (inactive)
6 | S=C1/C(=N/c2ccccc2)N(C2CCCCC2)/C(=N\C2CCCCC2)N1c1ccccc1 | > 100 µM (inactive) | 47.6 µM (inactive) | 86.5 µM (inactive) | > 100 µM (inactive) | 51.8 µM (inactive) | 78.5 µM (inactive) | > 100 µM (inactive) | > 100 µM (inactive) | > 100 µM (inactive) | 38 µM (inactive) | > 100 µM (inactive) | > 100 µM (inactive) | 36 µM (inactive) | 1.18 µM (inactive) | > 100 µM (inactive) | 47.2 µM (inactive) | > 100 µM (inactive) | > 100 µM (inactive) | 32.2 µM (inactive) | > 100 µM (inactive)
7 | COc1c2c(cc3c1C(O)N1CC[C@]34[C@H]3O[C@H]3[C@H](OC)C[C@@H]14)OCO2 (stereo not given in full) | > 100 µM (inactive) | 97.9 µM (inactive) | > 100 µM (inactive) | 1.18 µM (inactive) | 35.8 µM (inactive) | 42.8 µM (inactive) | 71.4 µM (inactive) | > 100 µM (inactive) | > 100 µM (inactive) | 72.3 µM (inactive) | > 100 µM (inactive) | 82 µM (inactive) | 27.2 µM (inactive) | > 100 µM (inactive) | 64.6 µM (inactive) | > 100 µM (inactive) | 54.7 µM (inactive) | > 100 µM (inactive) | > 100 µM (inactive) | 64.6 µM (inactive)
8 | Cc1nc(C)c(C(=O)NNC(=O)Cc2ccccc2)cc1C(=O)NNC(=O)Cc1ccccc1 | > 100 µM (inactive) | > 100 µM (inactive) | > 100 µM (inactive) | > 100 µM (inactive) | > 100 µM (inactive) | > 100 µM (inactive) | > 100 µM (inactive) | > 100 µM (inactive) | > 100 µM (inactive) | > 100 µM (inactive) | > 100 µM (inactive) | > 100 µM (inactive) | > 100 µM (inactive) | > 100 µM (inactive) | > 100 µM (inactive) | > 100 µM (inactive) | > 100 µM (inactive) | > 100 µM (inactive) | > 100 µM (inactive) | > 100 µM (inactive)
9 | Cc1cccc2nc3c(=O)[nH]c(=O)nc-3n(C)c12 | > 100 µM (inactive) | 30.2 µM (inactive) | 86.1 µM (inactive) | 15.7 µM (inactive) | 79.6 µM (inactive) | 33.2 µM (inactive) | 54 µM (inactive) | > 100 µM (inactive) | 39.1 µM (inactive) | 48.1 µM (inactive) | > 100 µM (inactive) | 29.7 µM (inactive) | 92.9 µM (inactive) | 41.1 µM (inactive) | 29.6 µM (inactive) | 71.3 µM (inactive) | 39.9 µM (inactive) | > 100 µM (inactive) | 86.5 µM (inactive) | 34.4 µM (inactive)
10 | COc1ccc(CC2C(=O)NC(C)C(=O)N(C)C3C(=O)N(C)C(Cc4ccc(O)c(c4)Oc4ccc(cc4)C3O)C(=O)NC(C)C(=O)NC(C)C(=O)N2C)cc1.COc1ccc(CC2C(=O)NC(C)C(=O)N(C)C3Cc4ccc(cc4)Oc4cc(ccc4O)CC(C(=O)NC(C)C(=O)NC(C)C(=O)N2C)N(C)C3=O)cc1 (stereo not given) | 0.0995 µM (active) | 0.03 µM (active) | 0.00619 µM (active) | 0.01 µM (active) | 0.0552 µM (active) | 0.01 µM (active) | 0.00237 µM (active) | 0.0115 µM (active) | 0.00552 µM (active) | 0.0413 µM (active) | 0.00995 µM (active) | 0.0019 µM (active) | 0.0274 µM (active) | 0.00102 µM (active) | 0.0168 µM (active) | 0.000638 µM (active) | 0.00718 µM (active) | 0.0408 µM (active) | 0.0012 µM (active) | 0.00322 µM (active)
11 | O=C(O)c1ccccc1CC1Cc2ccc3c(c2C1=O)CCC3 (stereo not given) | > 100 µM (inactive) | > 100 µM (inactive) | > 100 µM (inactive) | > 100 µM (inactive) | > 100 µM (inactive) | > 100 µM (inactive) | > 100 µM (inactive) | > 100 µM (inactive) | > 100 µM (inactive) | > 100 µM (inactive) | > 100 µM (inactive) | > 100 µM (inactive) | > 100 µM (inactive) | > 100 µM (inactive) | > 100 µM (inactive) | > 100 µM (inactive) | > 100 µM (inactive) | > 100 µM (inactive) | > 100 µM (inactive) | > 100 µM (inactive)
12 | CC(=O)OC1CC2C(=O)CC1(C)C2(C)C (stereo not given) | > 100 µM (inactive) | > 100 µM (inactive) | > 100 µM (inactive) | > 100 µM (inactive) | > 100 µM (inactive) | > 100 µM (inactive) | > 100 µM (inactive) | > 100 µM (inactive) | > 100 µM (inactive) | > 100 µM (inactive) | > 100 µM (inactive) | > 100 µM (inactive) | > 100 µM (inactive) | > 100 µM (inactive) | > 100 µM (inactive) | > 100 µM (inactive) | > 83.8 µM (inactive) | > 100 µM (inactive) | > 100 µM (inactive) | > 100 µM (inactive)
13 | O=C(NP(=O)(N1CC1)N1CC1)c1cc(I)ccc1I [DIIODBENZOTEPH] | 6.05 µM (inactive) | > 91.4 µM (inactive) | > 67.9 µM (inactive) | 5.06 µM (inactive) | 19.1 µM (inactive) | 62.7 µM (inactive) | 12.4 µM (inactive) | > 100 µM (inactive) | 10.9 µM (inactive) | 3.72 µM (inactive) | > 84.1 µM (inactive) | 52.7 µM (inactive) | 30 µM (inactive) | 23.9 µM (inactive) | 43.1 µM (inactive) | 53.7 µM (inactive) | 67.5 µM (inactive) | > 100 µM (inactive) | 24.6 µM (inactive) | > 64.3 µM (inactive)
